The record followed here is PubChem BioAssay (NCI).

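Test compounds were applied to cells in 96-well plates for 48 hours at 5 doses. The concentration for 50% growth inhibition is given as GI50. TGI marks complete inhibition of growth.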 Where only a bound is given, the exact number is not on record here.

Test systems include A549 NSCLC; RPMI-8226 leukemia; SF-539 CNS; SK-MEL-5 melanoma; SNB-75 CNS; TK-10 renal; UACC-62 melanoma; UO-31 renal; DU-145 prostate; NCI/ADR-RES ovarian.
What all share (assay): NCI tumour cell line growth inhibition, 48 h

`N#Cc1cccc(NC(=O)c2ccc(C(=O)O)c(C(=O)c3ccc(C(=O)O)c(C(=O)Nc4cccc(C#N)c4)c3)c2)c1`: the TGI in the experiment on A549 NSCLC, with RPMI-8226 leukemia, in the experiment with SF-539 CNS, in the experiment on SK-MEL-5 melanoma, with SNB-75 CNS and with TK-10 renal was > 100 µM throughout. Moreover, the TGI with UACC-62 melanoma and in the experiment with UO-31 renal was > 100 µM each time.
For the compound `C=C(CN1CCN(c2ccccc2OC)CC1)c1ccc(C(=O)Nc2ccccc2N)cc1`, the GI50 in the experiment with A549 NSCLC was 11.2 µM; in the experiment on DU-145 prostate, 3.8 µM; with NCI/ADR-RES ovarian, 0.143 µM; in the experiment with RPMI-8226 leukemia, 5.11 µM; with SF-539 CNS it was 2.18 µM; in the experiment on SK-MEL-5 melanoma, 2.58 µM. Moreover, the GI50 with TK-10 renal was 1.2 µM; in the experiment with UACC-62 melanoma, 1.18 µM; in the experiment with UO-31 renal, 7.93 µM. In addition, the TGI with A549 NSCLC was 35.5 µM; in the experiment with DU-145 prostate it was 39.5 µM; in the experiment with NCI/ADR-RES ovarian, 1.56 µM; with RPMI-8226 leukemia, > 50 µM; in the experiment with SF-539 CNS it was 23.7 µM; in the experiment with SK-MEL-5 melanoma it was 11.3 µM. Further, the values for the TGI in the experiment with TK-10 renal, in the experiment on UACC-62 melanoma and in the experiment with UO-31 renal were 9.07 µM, 6.92 µM and 16.4 µM, respectively.
Turning to `Cc1cc(C)cc(-n2c3nc(=O)n(C)c(=O)c-3nc3ccccc32)c1`, the TGI in the experiment on A549 NSCLC was 70.6 µM; in the experiment with RPMI-8226 leukemia, > 100 µM; with SF-539 CNS it was 49.7 µM; in the experiment with SK-MEL-5 melanoma, 30.8 µM; with SNB-75 CNS it was > 100 µM; in the experiment with TK-10 renal, > 100 µM. The figures for the TGI with UACC-62 melanoma and in the experiment on UO-31 renal were 31.5 µM and > 100 µM, respectively.
Consider `Cn1cnc([N+](=O)[O-])c1Sc1ccccn1`, for which the TGI with A549 NSCLC, in the experiment on RPMI-8226 leukemia, with SF-539 CNS, in the experiment with SK-MEL-5 melanoma, in the experiment with SNB-75 CNS and in the experiment with TK-10 renal was > 100 µM each time. Further, the TGI in the experiment with UACC-62 melanoma and in the experiment on UO-31 renal was > 100 µM in each case.
For the compound `Cc1ccc(S(=O)(=O)N(/N=C(\N)Oc2ccc(Cl)cc2)C(=N)Oc2ccc(Cl)cc2)cc1`, the TGI with A549 NSCLC, with SF-539 CNS, in the experiment on SK-MEL-5 melanoma, in the experiment with SNB-75 CNS, in the experiment on TK-10 renal and in the experiment with UACC-62 melanoma was > 100 µM in each case. Moreover, the TGI in the experiment on UO-31 renal was > 100 µM.
`O=C(c1cc(O)ccc1O)c1ccccc1C(Cl)(Cl)Cl`: the TGI with A549 NSCLC, in the experiment on RPMI-8226 leukemia, in the experiment on SF-539 CNS, in the experiment on SK-MEL-5 melanoma, in the experiment on SNB-75 CNS and with TK-10 renal was > 100 µM in each case. The TGI in the experiment with UACC-62 melanoma and in the experiment on UO-31 renal was > 100 µM throughout.
In the case of `N/C(=N\NS(=O)(=O)c1ccccc1)Oc1ccc(Cl)cc1`, the TGI with A549 NSCLC, in the experiment with RPMI-8226 leukemia, with SF-539 CNS, in the experiment on SK-MEL-5 melanoma, with SNB-75 CNS and with TK-10 renal was > 100 µM throughout. Moreover, the TGI in the experiment with UACC-62 melanoma and in the experiment with UO-31 renal was > 100 µM each time.
As to `O=C(CC(=O)N1N=C(c2ccccc2)C(N=Nc2ccc(C(=O)O)cc2)C1=O)Nc1ccc(F)cc1` (stereo unspecified), the TGI in the experiment with A549 NSCLC was > 100 µM; with RPMI-8226 leukemia, 99 µM; in the experiment on SF-539 CNS, 54.5 µM; in the experiment with SK-MEL-5 melanoma, 46.9 µM; in the experiment with TK-10 renal it was > 100 µM; in the experiment with UACC-62 melanoma, 42.8 µM. Further, in the experiment on UO-31 renal, the TGI turned out to be 73.4 µM.
Consider `CC(=O)NS(=O)(=O)c1ccc(NC(=O)COC(=O)c2cccc3c(=O)c4ccccc4[nH]c23)cc1`, for which the TGI with A549 NSCLC, in the experiment with RPMI-8226 leukemia, in the experiment with SF-539 CNS, in the experiment with SK-MEL-5 melanoma, with SNB-75 CNS and with TK-10 renal was > 100 µM in each case. Besides, the TGI with UACC-62 melanoma and in the experiment with UO-31 renal was > 100 µM in each case.
Consider `Cn1c2c([N+](=O)[O-])[se]nc2c(=O)n1-c1ccc([N+](=O)[O-])cc1`, for which the TGI worked out at 20.6 µM in the experiment on A549 NSCLC; 5.51 µM in the experiment on RPMI-8226 leukemia; 4.49 µM in the experiment on SF-539 CNS; 14.6 µM in the experiment on SK-MEL-5 melanoma; 7.63 µM with SNB-75 CNS; 16.2 µM in the experiment on TK-10 renal. In addition, the TGI with UACC-62 melanoma came out at 3.25 µM; in the experiment on UO-31 renal, 3.59 µM.
On to `COC(=O)/C=C/C(=O)C1C(C(=O)OC)C2(C(=O)OC)CCC1(C(=O)OC)N2` (stereo unspecified), for which the TGI with A549 NSCLC, with RPMI-8226 leukemia, with SF-539 CNS, with SK-MEL-5 melanoma, with TK-10 renal and in the experiment on UACC-62 melanoma was > 100 µM throughout. In the experiment with UO-31 renal, the TGI was > 100 µM.
For the compound `Cc1cnc[nH]c1=O`, the TGI in the experiment with A549 NSCLC, with RPMI-8226 leukemia, in the experiment with SK-MEL-5 melanoma, with SNB-75 CNS, in the experiment with TK-10 renal and with UACC-62 melanoma was > 100 µM throughout. The TGI with UO-31 renal was > 100 µM.
For `CC#C[C@@]1(O)CCCC[C@@H]1O`, the TGI in the experiment with A549 NSCLC, in the experiment with RPMI-8226 leukemia, in the experiment on SF-539 CNS, in the experiment on SK-MEL-5 melanoma, with SNB-75 CNS and in the experiment on TK-10 renal was > 100 µM in each case. Moreover, the TGI in the experiment on UACC-62 melanoma and in the experiment with UO-31 renal was > 100 µM in each case.
Regarding `c1ccc2c(CNCCCCCCNCc3cccc4ccccc34)cccc2c1`, the TGI with A549 NSCLC came to 32.3 µM; with RPMI-8226 leukemia it was 6.79 µM; with SF-539 CNS, 3.48 µM; in the experiment with SK-MEL-5 melanoma, 19.9 µM; in the experiment on SNB-75 CNS, 6.68 µM; with TK-10 renal, 25.2 µM. In addition, the TGI was determined as 21.6 µM with UACC-62 melanoma and 23.9 µM with UO-31 renal.
With `COC(=O)C1=C(OC)c2cc3c(cc2C(c2cc(OC)c(OC)c(OC)c2)C1C(=O)OC)OCO3` (stereo unspecified), the TGI with A549 NSCLC, with RPMI-8226 leukemia, in the experiment on SF-539 CNS, with SK-MEL-5 melanoma, with SNB-75 CNS and with TK-10 renal was > 100 µM throughout. Moreover, the TGI in the experiment on UACC-62 melanoma and in the experiment with UO-31 renal was > 100 µM in each case.
